Data on seven compounds can be found in PMC12259508, “Expediting multiple biological properties of main bioactive compounds of Mentha pulegium L” (AMB Express, 2025).

Test [1] concerns Escherichia coli ATCC 25922. The test can be described thus: MIC and MBC determination, broth microdilution. Type of test: cell-based. Particulars: for MBC: ATCC25922, 24 h, read-out: MBC Escherichia coli. The procedure:
(§1) As mentioned before, the minimum inhibitory concentration (MIC) was established using the broth microdilution method. The minimum sample concentration required to destroy the bacteria is indicated by the minimum bactericidal concentration (MBC). The microdilution method, based on MIC determination, was similarly applied. After 24 h of incubation at 37 °C, […] of sample from each tube showing no apparent growth were inoculated on Tryptone Soja agar (Biokar, Beauvais, France). The MBC was determined as the lowest concentration showing no growth on the culture medium.

Test [2] deals with Staphylococcus aureus ATCC 29213. The test can be described thus: MIC and MBC determination, broth microdilution. Type of test: cell-based. Particulars: for MBC / MIC: Staphylococcus aureus; for MBC: ATCC29213, 24 h; for MIC Staphylococcus aureus: broth microdilution. Here is the method: as §1
(Dilution methods test growth across graded concentrations, often in twofold steps.)

The test system of test [3] is Pseudomonas aeruginosa ATCC 27853. The test can be described thus: MIC and MBC determination, broth microdilution. Format: cell-based. As to conditions: for MBC: ATCC27853, 24 h, read-out: MBC Pseudomonas aeruginosa. The procedure:
as §1

Test [4] has as its system Listeria monocytogenes ATCC 13932. The test can be described thus: MIC and MBC determination, broth microdilution. Particulars: for MBC / MIC: Listeria monocytogenes; for MBC: ATCC13932, 24 h; for MIC Listeria monocytogenes: broth microdilution. Type of test: cell-based. Here is the method: as §1
Test [5] deals with T1, α-amylase from Bacillus licheniformis (Bacillus licheniformis, UniProt P06278).
T1 construct: purchased
The test can be described thus: α-Amylase inhibitory assay (starch/DNS). Type of test: biochemical. As to conditions: mean ± SD, triplicate. Here is the method:
(§2) The α-glucosidase from Saccharomyces cerevisiae and the α-amylase from Bacillus licheniformis were also obtained from reliable commercial sources. Additional reagents were carefully selected from reputable suppliers. Mueller–Hinton agar was sourced from Biokar in Beauvais, France. All other chemicals used are of analytical grade.
Specifically, 250μL of the sample was mixed with an equal volume of α-amylase (240 U/mL) in a 0.02 M sodium phosphate buffer (SPB) (pH = 6.9). The mixtures were incubated at 37 °C for twenty minutes. Subsequently, 250 µL of a 1% starch solution in a 0.02 M SPB (pH = 6.9) was added to the reaction mixture, and the combination was allowed to sit at 37 °C for 15 min. One milliliter of dinitrosalicylic acid (DNS) was then introduced, and the blend was brought to a boil in a water bath for ten minutes. The reaction mixture was subsequently diluted with 2 mL of distilled water, and the absorbance was measured at 540 nm using an ultraviolet–visible spectrophotometer.

Test [6] deals with T2, elastase (Sus scrofa, UniProt P00772). The test can be described thus: Elastase inhibitory assay. Format: biochemical. Here is the method:
By adapting certain aspects, the methodology of this research is based on the protocol reported by Jeddi et al. (Jeddi et al. [2023]).
Then, 200 µL of an elastase solution prepared in Tris–HCl buffer (0.2 M, pH 8.0) was mixed with 50 µL of each sample. Following a 15-min incubation at 25 °C, 200 µL of N-succinyl-Ala-Ala-p-nitroanilide solution was added, and the reaction mixtures were homogenized. Absorbances were recorded at 410 nm after an additional 20-min incubation at 25 °C. […] Furthermore, the methodology described in this study should provide a valuable resource for future research assessing the effect of other natural compounds on elastase activity, thereby expanding our understanding of their beneficial properties.

Test [7] concerns methicillin resistant Staphylococcus aureus (MRSA). On the set-up: method as in Zhao et al. [2023b]. Particulars: ref Zhao et al. [2023b]; cited from earlier work.
The target of test [8] is T3, α-glucosidase from Saccharomyces cerevisiae (Saccharomyces cerevisiae, UniProt P53341).
T3 construct: purchased
The test can be described thus: α-Glucosidase inhibitory assay (pNPG). Format: biochemical. Particulars: mean ± SD, triplicate. Here is the method: as §2
Initially, 200 µL of the samples were mixed with 100 µL of 0.1 M SPB (pH = 6.7) containing 0.1 U/mL of α-glucosidase enzyme. The mixture was then incubated at 37 °C for ten minutes. One milligram of pNPG was dissolved in 0.1 ml of SPB (pH = 6.7). The activity of α-glucosidase was assessed by measuring the absorbance at 405 nm following the addition of 1 mL of 0.1 M Na2CO3 to the reaction mixture.

In another test the test system is S. maltophilia. On the set-up: method as in Baygar ([2019]). As to conditions: ref Baygar ([2019]); cited from earlier work.
Test [9] has as its system Streptococcus equi subsp. equi. On the set-up: method as in Nozohour and Jalilzadeh-amin [2021]. Particulars: ref Nozohour and Jalilzadeh-amin [2021]; cited from earlier work.
The test system of test [10] is P. aeruginosa, S. aureus, and K. pneumoniae. On the set-up: method as in Amalich et al. [2016]. Particulars: ref Amalich et al. [2016]; cited from earlier work.
The subject of a further test is E. coli K1. On the set-up: method as in Gong et al. [2021]. Particulars: ref Gong et al. [2021], cited from earlier work.
The next test concerns S. epidermidis. Details: method as in Sonboli et al. ([2006]). As to conditions: ref Sonboli et al. ([2006]); cited from earlier work.
The test system of test [11] is S. aureus. Details: method as in Farhanghi et al. [2022]. As to conditions: ref Farhanghi et al. [2022]; cited from earlier work.
Test [12] relates to S. aureus. Details: method as in Sonboli et al. ([2006]). Particulars: ref Sonboli et al. ([2006]); cited from earlier work.
Details of test [13]: method as in Luís and Domingues [2021]. Particulars: ref Luís and Domingues [2021]; cited from earlier work.
The next test concerns the target tyrosinase (Agaricus bisporus, UniProt C7FF04). Details: method as in our previous study. Particulars: ref our previous study; cited from earlier work.
For test [14], the target named is T2, elastase. On the set-up: method as in our previous study. Particulars: ref our previous study, cited from earlier work.
The target in the next test is α-amylase. On the set-up: method as in Omari et al. [2023]. As to conditions: ref Omari et al. [2023]; cited from earlier work.
A further test has as its target α-glucosidase. Details: method as in Omari et al. [2023]. As to conditions: ref Omari et al. [2023]; cited from earlier work.
Setting [15] is: ATCC25922, broth microdilution, read-out: MIC Escherichia coli.
[16] abbreviates: 24 h, 37 °C, read-out: MBC Staphylococcus aureus.
The mark [17] stands for this setting: ATCC29213, broth microdilution, read-out: MIC Staphylococcus aureus.
[18] abbreviates: ATCC27853, broth microdilution, read-out: MIC Pseudomonas aeruginosa.
Setting [19] is: 24 h, 37 °C, read-out: MBC Listeria monocytogenes.
[20] abbreviates: ATCC13932, broth microdilution, read-out: MIC Listeria monocytogenes.

What is called MBC is the lowest tested concentration that kills the bacteria rather than only halting them. What is called MIC is the smallest concentration in the dilution series that meets the test's criterion for growth inhibition. A word on the IC50: it is the concentration that inhibits the measured activity by half.

In brackets after ≈: the same amount, converted by molar mass. Like-named read-outs stand apart in the source and are kept apart here.

T2 sequence (P00772 27-266): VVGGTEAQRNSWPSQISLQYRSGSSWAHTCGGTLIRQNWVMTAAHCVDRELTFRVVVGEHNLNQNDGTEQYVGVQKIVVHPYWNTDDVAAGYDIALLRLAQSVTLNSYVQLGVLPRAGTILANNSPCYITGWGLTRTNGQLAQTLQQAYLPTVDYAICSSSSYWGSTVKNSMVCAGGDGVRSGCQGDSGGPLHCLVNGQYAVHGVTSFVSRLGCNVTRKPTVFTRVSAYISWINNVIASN
T3 sequence (P53341 whole entry): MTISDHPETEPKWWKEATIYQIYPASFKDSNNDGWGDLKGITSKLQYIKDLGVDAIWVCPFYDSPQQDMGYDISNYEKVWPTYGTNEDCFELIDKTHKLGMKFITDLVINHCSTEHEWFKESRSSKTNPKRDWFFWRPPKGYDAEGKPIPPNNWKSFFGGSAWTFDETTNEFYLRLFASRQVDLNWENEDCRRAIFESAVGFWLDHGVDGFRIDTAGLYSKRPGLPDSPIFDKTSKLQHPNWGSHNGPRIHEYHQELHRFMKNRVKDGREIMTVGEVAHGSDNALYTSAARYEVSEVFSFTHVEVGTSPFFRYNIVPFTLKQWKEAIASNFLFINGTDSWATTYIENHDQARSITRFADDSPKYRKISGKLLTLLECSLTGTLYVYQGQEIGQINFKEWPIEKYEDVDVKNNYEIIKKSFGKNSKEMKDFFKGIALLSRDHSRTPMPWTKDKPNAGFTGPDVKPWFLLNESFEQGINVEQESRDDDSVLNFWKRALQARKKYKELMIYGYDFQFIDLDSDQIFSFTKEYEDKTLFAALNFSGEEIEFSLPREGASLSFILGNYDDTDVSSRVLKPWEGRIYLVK
T1 sequence (P06278 30-512): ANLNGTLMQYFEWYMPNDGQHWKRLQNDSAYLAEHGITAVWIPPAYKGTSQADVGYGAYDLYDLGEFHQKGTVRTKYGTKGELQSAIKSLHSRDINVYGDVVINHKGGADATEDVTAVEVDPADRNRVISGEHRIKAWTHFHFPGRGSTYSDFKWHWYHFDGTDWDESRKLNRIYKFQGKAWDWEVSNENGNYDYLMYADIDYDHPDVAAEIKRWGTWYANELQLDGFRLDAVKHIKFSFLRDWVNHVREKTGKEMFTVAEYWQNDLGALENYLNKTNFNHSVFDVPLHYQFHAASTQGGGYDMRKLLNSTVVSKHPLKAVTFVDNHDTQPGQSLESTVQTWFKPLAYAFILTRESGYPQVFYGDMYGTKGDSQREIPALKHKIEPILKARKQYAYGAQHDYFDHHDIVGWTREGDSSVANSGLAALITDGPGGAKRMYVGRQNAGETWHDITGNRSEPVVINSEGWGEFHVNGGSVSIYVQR
Sequence of tyrosinase (C7FF04 1-392): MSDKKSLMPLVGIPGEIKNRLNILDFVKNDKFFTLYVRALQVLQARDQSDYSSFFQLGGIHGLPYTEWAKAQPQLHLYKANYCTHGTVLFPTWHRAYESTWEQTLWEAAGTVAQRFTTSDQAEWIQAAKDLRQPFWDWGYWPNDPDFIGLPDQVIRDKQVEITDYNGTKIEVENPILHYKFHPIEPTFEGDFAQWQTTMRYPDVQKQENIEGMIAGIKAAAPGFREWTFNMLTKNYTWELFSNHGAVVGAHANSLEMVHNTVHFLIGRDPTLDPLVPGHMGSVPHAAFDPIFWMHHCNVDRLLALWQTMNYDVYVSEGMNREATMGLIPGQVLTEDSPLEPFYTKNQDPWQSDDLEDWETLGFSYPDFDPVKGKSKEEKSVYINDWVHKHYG

In the case of `O=C(N[C@H](CO)[C@H](O)c1ccc([N+](=O)[O-])cc1)C(Cl)Cl` [Chloramphenicol, reference compound], the minimal bactericidal concentration (MBC) in test [1] (37 °C) came out at 32 µg/mL (≈ 99 µM); in test [2] (setting [16]), 32 µg/mL (≈ 99 µM); in [3] (37 °C) it was 64 µg/mL (≈ 198 µM); in [4] (setting [19]) it was 32 µg/mL (≈ 99 µM). The MIC in [1] (setting [15]) was 8 µg/mL (≈ 24.8 µM); in test [2] (setting [17]) it was 8 µg/mL (≈ 24.8 µM); in test [3] (setting [18]) it was 64 µg/mL (≈ 198 µM); in test [4] (setting [20]), 16 µg/mL (≈ 49.5 µM).
Take `CC(C)[C@@H]1CC[C@@H](C)CC1=O` [Menthone, menthone]: the IC50 in test [5] is 968 µM; against elastase [6], 860 µM; in test [8], 703 µM. Moreover, the MBC was more than 2 µg/mL in test [1] (37 °C), 0.125 to 0.25 µg/mL (≈ 0.81 to 1.62 µM) in test [2] (setting [16]), 1 µg/mL (≈ 6.48 µM) in [3] (37 °C) and 0.125 to 0.25 µg/mL (≈ 0.81 to 1.62 µM) in test [4] (setting [19]). Also, the minimum inhibitory concentration (MIC) in test [1] (setting [15]) was 1 µg/mL (≈ 6.48 µM); in test [2] (setting [17]), 0.125 to 0.25 µg/mL (≈ 0.81 to 1.62 µM); in [3] (setting [18]), 0.5 µg/mL (≈ 3.24 µM); in test [4] (setting [20]) it was 0.125 to 0.25 µg/mL (≈ 0.81 to 1.62 µM). In addition, the “MBC Staphylococcus aureus” value in [2] (24 h, 37 °C) turned out to be 0.125 µg/mL (≈ 0.81 µM). In addition, the “MIC Staphylococcus aureus” value in test [2] is reported as 0.125 µg/mL (≈ 0.81 µM). Moreover, the “MBC Listeria monocytogenes” value in test [4] (24 h, 37 °C) came out at 0.25 µg/mL (≈ 1.62 µM). For the same compound, the “MIC Listeria monocytogenes” value in [4] was 0.125 µg/mL (≈ 0.81 µM). In addition, the “MBC MRSA” value in test [7] was 7.1 µg/mL (≈ 46 µM). For the same compound, the “MIC MRSA” value in [7] is 3.5 µg/mL (≈ 22.7 µM).
Take `CC(C)=C1CC[C@@H](C)CC1=O` [Pulegone, pulegone]: the IC50 was 1200 µM in [5], 774 µM at elastase [6] and 783 µM in test [8]. The “MBC S. maltophilia” value in the test with S. maltophilia is 5000 µg/mL (≈ 32800 µM). The “MIC S. maltophilia” value in the test on S. maltophilia was 2500 µg/mL (≈ 16400 µM). Also, in the test on S. maltophilia, the “inhibition zone S. maltophilia” value is 28 mm. The MBC in test [1] was 0.5 µg/mL (≈ 3.28 µM); in [2] (read-out: MBC Staphylococcus aureus, 24 h, 37 °C), 0.125 to 0.25 µg/mL (≈ 0.821 to 1.64 µM); in [3], 0.5 µg/mL (≈ 3.28 µM); in [4] (read-out: MBC Listeria monocytogenes, 24 h, 37 °C), 0.125 to 0.25 µg/mL (≈ 0.821 to 1.64 µM). For the same compound, the MIC in test [1] (ATCC25922, read-out: MIC Escherichia coli) is 0.25 µg/mL (≈ 1.64 µM); in test [2] (ATCC29213, read-out: MIC Staphylococcus aureus, broth microdilution), 0.125 to 0.25 µg/mL (≈ 0.821 to 1.64 µM); in [3] (ATCC27853, read-out: MIC Pseudomonas aeruginosa) it was 0.5 µg/mL (≈ 3.28 µM); in [4] (ATCC13932, read-out: MIC Listeria monocytogenes, broth microdilution), 0.125 to 0.25 µg/mL (≈ 0.821 to 1.64 µM). In test [2] (24 h, 37 °C), the “MBC Staphylococcus aureus” value is 0.25 µg/mL (≈ 1.64 µM). The “MIC Staphylococcus aureus” value in test [2] was 0.125 µg/mL (≈ 0.821 µM). In addition, in [4] (24 h, 37 °C), the “MBC Listeria monocytogenes” value was found to be 0.125 µg/mL (≈ 0.821 µM). Besides, in test [4], the “MIC Listeria monocytogenes” value was determined as 0.125 µg/mL (≈ 0.821 µM). Also, the “inhibition zone Streptococcus equi subsp. equi” value in test [9] is 20 mm. Besides, the “inhibitory effects on P. aeruginosa, S. aureus, and K. pneumoniae” value in [10] is reported as 2.80–11.20 µl/mL. Also, in the test with E. coli K1 (E. coli K1), the reduced biofilm formation was 52.36%. Moreover, the “MBC E. coli K1” value with E. coli K1 is 47350 µg/mL (≈ 311000 µM). In the test with E. coli K1, the “MIC E. coli K1” value is 23680 µg/mL (≈ 156000 µM). The “activity against S. epidermidis” value in the test on S. epidermidis is 1.8 ± 0.3 mg/mL. The “MIC S. aureus” value in the test on S. aureus [11] is 5.85 μl/mL. The “activity against S. aureus” value in the test with S. aureus [12] is 1.8 ± 0.3 mg/mL.
In the case of `CC(=O)Oc1ccccc1C(=O)O` [acetylsalicylic acid], in test [13], the “IC50 inhibition of protein denaturation” value was 89.47 ± 2.64 %, v/v.
Consider `CC12CCC(CC1)C(C)(C)O2` [eucalyptol, reference compound], for which the “MIC S. aureus” value in the test with S. aureus [11] was 23.43 μl/mL.
Consider `C=C(C)[C@H]1CC=C(C)CC1` [limonene], for which the IC50 anti-tyrosinase on tyrosinase was 74.24 ± 2.06 µg/mL (≈ 545 µM). Besides, the IC50 anti-elastase on elastase [14] is 91.25 ± 3.06 µg/mL (≈ 670 µM).
Turning to `CC1=CCC2CC1C2(C)C` (stereo not drawn) [α-pinene], the “IC50 α-amylase” value on α-amylase is 82.12 ± 4.52 µg/mL (≈ 603 µM). Besides, at α-glucosidase, the “IC50 α-glucosidase” value was 95.62 ± 4.11 µg/mL (≈ 702 µM). Further, the IC50 on elastase [14] (read-out: IC50 anti-elastase (converted)) was 471 µM.
